Results filed as inconclusive are left out. Activity calls are given as the source filed them.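 Rule for the calls: active = valid dose-response fit whose half-maximal growth-inhibiting concentration is at or below a set limit above the top tested dose; inconclusive = flat fit with effect between 30 and 70%, or poor fit; inactive = half-maximal concentration above a set limit.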
Assay: antibacterial activity against Clostridioides difficile – 10-point retest, dose response (AID 1259246)
Details: Clostridioides difficile clinical isolate growth, OD600, 24 h

SMILES | activity change, negative = inhibition (at 120 µM (top of the series)) | also measured
C[C@H]1CCCCO[C@H](CN(C)Cc2ccccc2)[C@@H](C)CN([C@@H](C)CO)C(=O)c2cc(NC(=O)Nc3ccc(C(F)(F)F)cc3)ccc2O1 |  | activity change, negative = inhibition (at 60 µM (top of the series)): 3.08% (inactive)
C[C@@H]1CCCCO[C@H](CN(C)S(=O)(=O)c2ccc(F)cc2)[C@@H](C)CN([C@@H](C)CO)C(=O)c2cc(NC(=O)Nc3cccc4ccccc34)ccc2O1 | 19.1% (inactive) | 
C/C=C/c1ccc2c(c1)O[C@H](CN(C)CC1CCOCC1)[C@H](C)CN([C@@H](C)CO)S2(=O)=O | -1.64% (inactive) | 
C[C@@H]1CN([C@@H](C)CO)C(=O)Cc2cc(NC(=O)C3CCCCC3)ccc2O[C@@H]1CN(C)Cc1ccc(-c2ccccc2)cc1 | 19% (inactive) | 
C[C@@H]1CN([C@@H](C)CO)S(=O)(=O)c2ccc(C#CCN(C)C)cc2O[C@@H]1CN(C)Cc1ccc(F)cc1 | 4.72% (inactive) | 
C[C@H]1CCCCO[C@H](CN(C)S(=O)(=O)c2ccc(F)cc2)[C@@H](C)CN([C@@H](C)CO)C(=O)c2cc(NC(=O)Nc3cccc4ccccc34)ccc2O1 | 21.6% (inactive) | 
C[C@H](CO)N1C[C@H](C)[C@@H](CN(C)S(=O)(=O)c2ccc(Cl)cc2)Oc2c(NC(=O)Nc3ccc(C(F)(F)F)cc3)cccc2C1=O | 61.8% (inactive) | activity change, negative = inhibition (at 60 µM (top of the series)): 25% (inactive)
CC(C)CC#Cc1ccc2c(c1)O[C@@H](CN(C)Cc1ccccc1)[C@H](C)CN([C@@H](C)CO)S2(=O)=O | 32.1% (inactive) | 
CNC[C@H]1Oc2cc(Br)ccc2S(=O)(=O)N([C@@H](C)CO)C[C@H]1C | 5.27% (inactive) | 
COc1ccc(S(=O)(=O)N(C)C[C@@H]2Oc3ccc(NC(=O)CCCN(C)C)cc3CC(=O)N([C@@H](C)CO)C[C@H]2C)cc1 | -5.12% (inactive) | 
COc1ccccc1C#Cc1ccc([C@H]2[C@@H](CO)N(C(=O)C3CCCCC3)[C@H]2C#N)cc1 |  | activity change, negative = inhibition (at 60 µM (top of the series)): 2.35% (inactive)
Cc1ccc(S(=O)(=O)N2C[C@@H](O)COC[C@H]3O[C@H](CC(=O)NCc4ccccc4Cl)CC[C@@H]32)cc1 | 13.4% (inactive) | 
O=C(C[C@H]1C[C@@H]2c3cc(NC(=O)NC4CCCC4)ccc3O[C@@H]2[C@@H](CO)O1)NCc1ccc(Cl)cc1 | 8.51% (inactive) | 
O=C(N[C@H]1CC[C@H](CCNS(=O)(=O)c2ccc(Cl)cc2)O[C@H]1CO)c1cnccn1 | -7.94% (inactive) | 
CC(C)CC#Cc1ccc2c(c1)O[C@H](CN(C)CC1CCOCC1)[C@H](C)CN([C@H](C)CO)S2(=O)=O | 14.5% (inactive) | 
C[C@H](CO)N1C[C@H](C)[C@@H](CN(C)Cc2ccncc2)Oc2cc(-c3ccccc3)ccc2S1(=O)=O | 21.1% (inactive) | 
C[C@H]1CN([C@@H](C)CO)S(=O)(=O)c2ccc(C#Cc3ccccc3F)cc2O[C@@H]1CN(C)C | 10.1% (inactive) | 
O=C(C[C@@H]1C[C@@H]2c3cc(NS(=O)(=O)c4ccc(F)cc4)ccc3O[C@@H]2[C@@H](CO)O1)NCc1ccc(-c2ccccc2)cc1 |  | activity change, negative = inhibition (at 135 µM (top of the series)): 18.3% (inactive)
C[C@H]1CN([C@@H](C)CO)C(=O)Cc2cc(NC(=O)CCCN(C)C)ccc2O[C@@H]1CN(C)Cc1ccc(Oc2ccccc2)cc1 | 32.2% (inactive) | 
O=C(C[C@H]1C[C@@H]2c3cc(NC(=O)C4CCC4)ccc3O[C@@H]2[C@@H](CO)O1)NCCN1CCCCC1 |  | activity change, negative = inhibition (at 68 µM (top of the series)): -0.905% (inactive)

SMILES | activity change, negative = inhibition (at 120 µM (top of the series)) | also measured
O=C(N[C@H]1CC[C@H](CCNS(=O)(=O)Cc2ccccc2)O[C@H]1CO)c1ccc2c(c1)OCO2 |  | activity change, negative = inhibition (at 135 µM (top of the series)): -7.24% (inactive)
COc1ccc(NC(=O)Nc2cccc3c2O[C@@H](CN(C)Cc2ccc(Oc4ccccc4)cc2)[C@@H](C)CN([C@@H](C)CO)C3=O)cc1 | 30.5% (inactive) | 
C[C@@H]1CN([C@H](C)CO)C(=O)c2cc(C#CCc3ccccc3)cnc2O[C@H]1CN(C)CC1CCCC1 |  | activity change, negative = inhibition (at 60 µM (top of the series)): 19.2% (inactive)
O=C(C[C@H]1C[C@H]2c3cc(NC(=O)Nc4ccccc4)ccc3O[C@H]2[C@H](CO)O1)NC1CCCC1 | -1.4% (inactive) | 
C[C@@H]1CN([C@@H](C)CO)C(=O)Cc2cc(NS(=O)(=O)c3cccs3)ccc2O[C@@H]1CN(C)S(=O)(=O)c1ccc(Cl)cc1 | 32.8% (inactive) | 
C[C@@H]1CN([C@H](C)CO)C(=O)Cc2cc(NC(=O)C3CC3)ccc2O[C@@H]1CN(C)Cc1ccc(-c2ccccc2)cc1 |  | activity change, negative = inhibition (at 135 µM (top of the series)): 20.9% (inactive)
C[C@@H]1CN([C@H](C)CO)C(=O)Cc2cc(NC(=O)C3CC3)ccc2O[C@@H]1CN(C)Cc1ccc(Cl)c(Cl)c1 | 27.9% (inactive) | 
C[C@@H]1CN([C@@H](C)CO)C(=O)Cc2cc(NC(=O)c3ccncc3)ccc2O[C@@H]1CN(C)S(=O)(=O)c1cn(C)cn1 | 37.2% (inactive) | 
CC(C)CC#Cc1ccc2c(c1)O[C@@H](CN(C)Cc1ccc3c(c1)OCO3)[C@@H](C)CN([C@@H](C)CO)S2(=O)=O | 22.9% (inactive) | 
CO[C@@H]1CN(C)C(=O)c2cc(NC(=O)c3ccc(-c4ccccc4)cc3)ccc2OC[C@H](C)NC[C@@H]1C | 31.8% (inactive) | 
C[C@@H]1CN([C@H](C)CO)S(=O)(=O)c2ccc(C3=CCCCC3)cc2O[C@H]1CN(C)Cc1ccccc1 | 12.5% (inactive) | 
C[C@H](CO)N1C[C@H](C)[C@@H](CN(C)Cc2ccc(Oc3ccccc3)cc2)Oc2c(NC(=O)Nc3ccccc3)cccc2C1=O | 23.8% (inactive) | 
CC(C)NC(=O)N(C)C[C@@H]1OCCCC[C@H](C)Oc2ccc(NC(=O)Nc3cccc4ccccc34)cc2C(=O)N([C@H](C)CO)C[C@@H]1C | 60.5% (inactive) | 
COc1ccccc1CNC(=O)C[C@H]1C[C@H]2c3cc(NC(=O)NC4CCCC4)ccc3O[C@H]2[C@H](CO)O1 |  | activity change, negative = inhibition (at 60 µM (top of the series)): -5.15% (inactive)
COc1ccc(S(=O)(=O)N(C)C[C@H]2Oc3c(NC(=O)Nc4ccc5c(c4)OCO5)cccc3C(=O)N([C@@H](C)CO)C[C@H]2C)cc1 | 11.1% (inactive) | 
O=S(=O)(Cc1ccccc1)NCC[C@H]1CC[C@H](NS(=O)(=O)c2ccc(F)cc2)[C@H](CO)O1 |  | activity change, negative = inhibition (at 135 µM (top of the series)): -6.92% (inactive)
CO[C@H]1CN(C)C(=O)c2cc(NC(=O)c3nc4ccccc4s3)ccc2OC[C@H](C)NC[C@H]1C |  | activity change, negative = inhibition (at 135 µM (top of the series)): -0.247% (inactive)
O=C(O)C[C@H]1C[C@@H]2c3cc(NC(=O)NC4CCCC4)ccc3O[C@@H]2[C@@H](CO)O1 | 2.6% (inactive) | 
C[C@@H]1CN([C@@H](C)CO)C(=O)Cc2cc(NC(=O)C3CC3)ccc2O[C@@H]1CN(C)Cc1ccc(C(F)(F)F)cc1 | 21.2% (inactive) | 
COc1ccc(CN(C)C[C@@H]2OCCCC[C@@H](C)Oc3ccc(NC(=O)Nc4cccc5ccccc45)cc3C(=O)N([C@H](C)CO)C[C@H]2C)cc1 | 44.3% (inactive) | 

SMILES | activity change, negative = inhibition (at 120 µM (top of the series)) | also measured
C[C@@H]1CN([C@@H](C)CO)S(=O)(=O)c2ccc(/C=C/c3ccccc3)cc2O[C@H]1CN(C)Cc1ccccc1 |  | activity change, negative = inhibition (at 60 µM (top of the series)): 2.6% (inactive)
COc1ccc(-c2ccc([C@H]3[C@H](C#N)N[C@H]3CO)cc2)cc1 | -2.73% (inactive) | 
Cc1ccc(S(=O)(=O)N[C@@H]2CC[C@H](CCNS(=O)(=O)Cc3ccccc3)O[C@H]2CO)cc1 | -2.21% (inactive) | 
COc1ccc(NC(=O)Nc2cccc3c2O[C@H](CN(C)C(=O)NC2CCCCC2)[C@@H](C)CN([C@H](C)CO)C3=O)cc1 | -0.118% (inactive) | 
COc1ccc(NC(=O)N(C)C[C@@H]2Oc3ccc(NC(=O)CCCN(C)C)cc3CC(=O)N([C@H](C)CO)C[C@H]2C)cc1 |  | activity change, negative = inhibition (at 135 µM (top of the series)): 1.15% (inactive)
CN(C)CC(=O)N1[C@@H](C#N)[C@H](c2ccc(C#CC3CCCCC3)cc2)[C@@H]1CO |  | activity change, negative = inhibition (at 60 µM (top of the series)): 0.345% (inactive)
C[C@H](CO)N1C[C@H](C)[C@H](CN(C)Cc2ccc(C(=O)O)cc2)Oc2cc(/C=C/c3ccccc3)ccc2S1(=O)=O | -7.29% (inactive) | 
COc1ccc(S(=O)(=O)N(C)C[C@@H]2Oc3ccc(NC(=O)CCCN(C)C)cc3CC(=O)N([C@H](C)CO)C[C@H]2C)cc1 |  | activity change, negative = inhibition (at 135 µM (top of the series)): -7.92% (inactive)
O=C(C[C@H]1C[C@@H]2c3cc(NS(=O)(=O)c4ccc(F)cc4)ccc3O[C@@H]2[C@@H](CO)O1)NCc1ccc(Cl)cc1 |  | activity change, negative = inhibition (at 68 µM (top of the series)): 8.4% (inactive)
C/C=C/c1ccc2c(c1)O[C@H](CN(C)CC1CCOCC1)[C@H](C)CN([C@H](C)CO)S2(=O)=O | -5.69% (inactive) | 
COc1ccccc1-c1ccc2c(c1)O[C@H](CN(C)Cc1ccc3c(c1)OCO3)[C@H](C)CN([C@H](C)CO)S2(=O)=O |  | activity change, negative = inhibition (at 60 µM (top of the series)): -2.89% (inactive)
C[C@@H]1CN([C@H](C)CO)S(=O)(=O)c2ccc(C#CC3CCCC3)cc2O[C@H]1CN(C)C | 4.79% (inactive) | 
CC(C)C#Cc1ccc2c(c1)O[C@H](CN(C)CC1CCOCC1)[C@H](C)CN([C@H](C)CO)S2(=O)=O | 10.2% (inactive) | 
C[C@H]1CN([C@@H](C)CO)S(=O)(=O)c2ccc(C#CC3CCCCC3)cc2O[C@@H]1CN(C)Cc1cccnc1 | 20.8% (inactive) | 
CNC[C@H]1Oc2ccc(N)cc2CC(=O)N([C@@H](C)CO)C[C@H]1C | -3.55% (inactive) | 
C[C@H](CO)N1C[C@H](C)[C@H](CN(C)C(=O)NC2CCCCC2)Oc2c(NC(=O)Nc3ccc(C(F)(F)F)cc3)cccc2C1=O | 32.2% (inactive) | 
CO[C@@H]1CN(C)C(=O)c2cc(NC(=O)c3ccc(Oc4ccccc4)cc3)ccc2OC[C@H](C)NC[C@H]1C |  | activity change, negative = inhibition (at 135 µM (top of the series)): 24.9% (inactive)
CO[C@H]1CN(C)C(=O)c2cc(NC(=O)c3ccc(Oc4ccccc4)cc3)ccc2OC[C@H](C)NC[C@H]1C | 31.6% (inactive) | 
CC(C)CC#Cc1ccc2c(c1)O[C@@H](CN(C)Cc1ccc3c(c1)OCO3)[C@H](C)CN([C@H](C)CO)S2(=O)=O | 17.8% (inactive) | 
